Assay results published in article PMC5218480 (PLoS ONE, 2017).

System: MV-4-11 cells
Experiment: Gene expression microarray analysis (Affymetrix PrimeView) and GSEA
Type: cell-based, human
Parameters: RFU PODN (11730768_x_at) / Fold change /veh PODN (11730768_x_at) / RFU LINC00158 (11744669_a_at) / Fold change /veh LINC00158 (11744669_a_at) / RFU DUSP10 (11751237_a_at) / Fold change /veh DUSP10 (11751237_a_at) / RFU ID3 (11757404_x_at) / Fold change /veh ID3 (11757404_x_at) / RFU PLEKHG5 (11737974_s_at) / Fold change /veh PLEKHG5 (11737974_s_at) / RFU LRRC4B (11730491_at) / Fold change /veh LRRC4B (11730491_at) / RFU GIMAP4 (11747438_a_at) / Fold change /veh GIMAP4 (11747438_a_at) / RFU KRT8 (11758183_x_at) / Fold change /veh KRT8 (11758183_x_at) / RFU CNN1 (11734310_a_at) / Fold change /veh CNN1 (11734310_a_at) / RFU VPS37D (11726825_at) / Fold change /veh VPS37D (11726825_at) / RFU C10orf10 (11716522_x_at) / Fold change /veh C10orf10 (11716522_x_at) / RFU KIR2DL2 /// KIR2DL4 /// KIR2DL5A /// KIR2DL5B /// KIR2DS1 /// KIR2DS2 /// KIR2DS3 /// KIR2DS4 /// KIR3DL3 /// KIR3DL3 /// KIR3DS1 (11738374_at) / Fold change /veh KIR2DL2 /// KIR2DL4 /// KIR2DL5A /// KIR2DL5B /// KIR2DS1 /// KIR2DS2 /// KIR2DS3 /// KIR2DS4 /// KIR3DL3 /// KIR3DL3 /// KIR3DS1 (11738374_at) / RFU C1QL1 (11718748_at) / Fold change /veh C1QL1 (11718748_at) / RFU TMPRSS4 (11747572_a_at) / Fold change /veh TMPRSS4 (11747572_a_at) / RFU HAMP (11756126_x_at) / Fold change /veh HAMP (11756126_x_at) / RFU RNFT2 (11725882_a_at) / Fold change /veh RNFT2 (11725882_a_at) / RFU NR4A2 (11747474_a_at) / Fold change /veh NR4A2 (11747474_a_at) / RFU ABCC12 (11746883_a_at) / Fold change /veh ABCC12 (11746883_a_at) / RFU TMEM136 (11760407_x_at) / Fold change /veh TMEM136 (11760407_x_at) / RFU CLDN22 /// WWC2 (11732394_at) / Fold change /veh CLDN22 /// WWC2 (11732394_at) / RFU HLA-DPB1 (11760878_x_at) / Fold change /veh HLA-DPB1 (11760878_x_at) / RFU SPINT1 (11716480_a_at) / Fold change /veh SPINT1 (11716480_a_at) / RFU GAP43 (11754022_s_at) / Fold change /veh GAP43 (11754022_s_at) / RFU A4GNT (11735810_at) / Fold change /veh A4GNT (11735810_at) / RFU PRB3 (11715151_x_at) / Fold change /veh PRB3 (11715151_x_at) / RFU TUBB4B (11761932_at) / Fold change /veh TUBB4B (11761932_at) / RFU CAPN14 (11732068_a_at) / Fold change /veh CAPN14 (11732068_a_at) / RFU TMCC2 (11721928_a_at) / Fold change /veh TMCC2 (11721928_a_at) / RFU IRGQ (11745062_a_at) / Fold change /veh IRGQ (11745062_a_at) / RFU FAM174B (11720279_a_at) / Fold change /veh FAM174B (11720279_a_at) / RFU TMPRSS4 (11748680_a_at) / Fold change /veh TMPRSS4 (11748680_a_at) / RFU FAM212B (11763350_a_at) / Fold change /veh FAM212B (11763350_a_at) / RFU PLEKHG5 (11743358_a_at) / Fold change /veh PLEKHG5 (11743358_a_at) / RFU ZSCAN30 (11745921_a_at) / Fold change /veh ZSCAN30 (11745921_a_at) / RFU CMKLR1 (11741424_a_at) / Fold change /veh CMKLR1 (11741424_a_at) / RFU LOC101060620 /// MAPK8IP1 (11723275_at) / Fold change /veh LOC101060620 /// MAPK8IP1 (11723275_at) / RFU SPTSSB (11747773_x_at) / Fold change /veh SPTSSB (11747773_x_at) / RFU PRSS12 (11739890_at) / Fold change /veh PRSS12 (11739890_at) / RFU BIN1 (11741810_x_at) / Fold change /veh BIN1 (11741810_x_at) / RFU WNT11 (11732464_a_at) / Fold change /veh WNT11 (11732464_a_at) / RFU C10orf10 (11716521_a_at) / Fold change /veh C10orf10 (11716521_a_at) / RFU C5orf56 (11738089_at) / Fold change /veh C5orf56 (11738089_at) / RFU CYB561 (11721691_x_at) / Fold change /veh CYB561 (11721691_x_at) / RFU ANKRD19P (11752326_a_at) / Fold change /veh ANKRD19P (11752326_a_at) / RFU OR2T12 /// OR2T33 /// OR2T8 (11738714_s_at) / Fold change /veh OR2T12 /// OR2T33 /// OR2T8 (11738714_s_at) / RFU VCAN (11748164_a_at) / Fold change /veh VCAN (11748164_a_at) / RFU JSRP1 (11732532_at) / Fold change /veh JSRP1 (11732532_at) / RFU KRTAP10-11 (11738290_x_at) / Fold change /veh KRTAP10-11 (11738290_x_at) / RFU MYO3A (11730013_a_at) / Fold change /veh MYO3A (11730013_a_at) / RFU EBF3 (11725865_a_at) / Fold change /veh EBF3 (11725865_a_at) / RFU CAMK2N1 (11719241_x_at) / Fold change /veh CAMK2N1 (11719241_x_at) / RFU C5orf56 (11738088_a_at) / Fold change /veh C5orf56 (11738088_a_at) / RFU OLFML3 (11715873_a_at) / Fold change /veh OLFML3 (11715873_a_at) / RFU LOC100653217 /// NTM (11731650_a_at) / Fold change /veh LOC100653217 /// NTM (11731650_a_at) / RFU MAPK11 (11762145_a_at) / Fold change /veh MAPK11 (11762145_a_at) / RFU FIZ1 (11724087_x_at) / Fold change /veh FIZ1 (11724087_x_at) / RFU OASL (11726364_x_at) / Fold change /veh OASL (11726364_x_at) / RFU SOX15 (11748057_x_at) / Fold change /veh SOX15 (11748057_x_at) / RFU CD79A (11719716_a_at) / Fold change /veh CD79A (11719716_a_at) / RFU HIST1H1D (11736915_at) / Fold change /veh HIST1H1D (11736915_at) / RFU CASKIN2 (11723855_a_at) / Fold change /veh CASKIN2 (11723855_a_at) / RFU LOC730098 (11760151_x_at) / Fold change /veh LOC730098 (11760151_x_at) / RFU OR4N2 (11742367_at) / Fold change /veh OR4N2 (11742367_at) / RFU PRRT2 (11749266_a_at) / Fold change /veh PRRT2 (11749266_a_at) / RFU SNX32 (11753110_a_at) / Fold change /veh SNX32 (11753110_a_at) / RFU CDHR5 (11726645_a_at) / Fold change /veh CDHR5 (11726645_a_at) / RFU RCAN1 (11760418_a_at) / Fold change /veh RCAN1 (11760418_a_at) / RFU FAM167A (11723789_a_at) / Fold change /veh FAM167A (11723789_a_at) / RFU FAM26E (11764081_at) / Fold change /veh FAM26E (11764081_at) / RFU ISYNA1 (11749810_s_at) / Fold change /veh ISYNA1 (11749810_s_at) / RFU ACY1 (11761880_at) / Fold change /veh ACY1 (11761880_at) / RFU 11764098_at / Fold change /veh 11764098_at / RFU SAMD14 (11745864_x_at) / Fold change /veh SAMD14 (11745864_x_at) / RFU NPB (11741838_a_at) / Fold change /veh NPB (11741838_a_at) / RFU TMPRSS6 (11731388_a_at) / Fold change /veh TMPRSS6 (11731388_a_at) / RFU KRTAP10-2 (11738614_at) / Fold change /veh KRTAP10-2 (11738614_at) / RFU ARHGAP8 /// PRR5-ARHGAP8 (11727945_x_at) / Fold change /veh ARHGAP8 /// PRR5-ARHGAP8 (11727945_x_at) / RFU KRTAP5-7 /// NADSYN1 (11734609_at) / Fold change /veh KRTAP5-7 /// NADSYN1 (11734609_at) / RFU RASL12 (11751679_a_at) / Fold change /veh RASL12 (11751679_a_at) / RFU CDKN2B (11736163_a_at) / Fold change /veh CDKN2B (11736163_a_at) / RFU PRF1 (11729649_at) / Fold change /veh PRF1 (11729649_at) / RFU, ZNF638 /// ZNF638-IT1 / Fold change vs veh, ZNF638 /// ZNF638-IT1 / RFU, PANK3 / Fold change vs veh, PANK3 / RFU, SH3YL1 / Fold change vs veh, SH3YL1 / RFU, ZEB2 / Fold change vs veh, ZEB2 / RFU, NRIP1 / Fold change vs veh, NRIP1 / RFU, PTTG1IP / Fold change vs veh, PTTG1IP / RFU, CAPN2 / Fold change vs veh, CAPN2 / RFU, MED14 / Fold change vs veh, MED14 / RFU, SNORA58 / Fold change vs veh, SNORA58 / RFU, C1orf63 / Fold change vs veh, C1orf63 / RFU, LRRFIP1 / Fold change vs veh, LRRFIP1 / RFU, NDUFAF7 / Fold change vs veh, NDUFAF7 / RFU, SLC12A2 / Fold change vs veh, SLC12A2 / RFU, IBTK / Fold change vs veh, IBTK / RFU, ESF1 / Fold change vs veh, ESF1 / Fold change vs veh, TMEM50B / RFU, TAOK1 / Fold change vs veh, TAOK1 / RFU, ACBD3 / Fold change vs veh, ACBD3 / RFU, TMA16 / Fold change vs veh, TMA16 / RFU, RWDD3 / Fold change vs veh, RWDD3 / RFU, BCAT1 / Fold change vs veh, BCAT1 / RFU, EDEM3 / Fold change vs veh, EDEM3 / RFU, TMEM33 / Fold change vs veh, TMEM33 / RFU, WDR75 / Fold change vs veh, WDR75 / RFU, AHCTF1 / Fold change vs veh, AHCTF1 / RFU, TFRC / Fold change vs veh, TFRC / RFU, ZDHHC17 / Fold change vs veh, ZDHHC17 / RFU, NOM1 / Fold change vs veh, NOM1 / RFU, ARL8B / Fold change vs veh, ARL8B / RFU, ZBTB11 / Fold change vs veh, ZBTB11 / RFU, TAMM41 / Fold change vs veh, TAMM41 / RFU, KIAA1704 /// LOC100996395 / Fold change vs veh, KIAA1704 /// LOC100996395 / RFU, ING1 / Fold change vs veh, ING1 / RFU, TRMT61B / Fold change vs veh, TRMT61B / RFU, FUBP3 / Fold change vs veh, FUBP3 / RFU, TP53 / Fold change vs veh, TP53 / RFU, TNKS2 / Fold change vs veh, TNKS2 / RFU, ZFP14 / Fold change vs veh, ZFP14 / RFU, ACTR2 / Fold change vs veh, ACTR2 / RFU, PPP3R1 / Fold change vs veh, PPP3R1 / RFU, PIK3R1 / Fold change vs veh, PIK3R1 / RFU, HNRNPA1 / Fold change vs veh, HNRNPA1 / RFU, RNF170 / Fold change vs veh, RNF170 / RFU, ZNF28 / Fold change vs veh, ZNF28 / RFU, RNGTT / Fold change vs veh, RNGTT / RFU, OGT / Fold change vs veh, OGT / RFU, BRD1 / Fold change vs veh, BRD1 / RFU, MARS / Fold change vs veh, MARS / RFU, ZNF655 / Fold change vs veh, ZNF655 / RFU, FAHD1 / Fold change vs veh, FAHD1 / RFU, BDP1 / Fold change vs veh, BDP1 / RFU, LRRCC1 / Fold change vs veh, LRRCC1 / RFU, ARID1A / Fold change vs veh, ARID1A / RFU, ZNF146 / Fold change vs veh, ZNF146 / RFU, ZNF330 / Fold change vs veh, ZNF330 / RFU, GPN3 / Fold change vs veh, GPN3 / RFU, C9orf123 / Fold change vs veh, C9orf123 / RFU, N4BP2L2 / Fold change vs veh, N4BP2L2 / RFU, ARFIP1 / Fold change vs veh, ARFIP1 / RFU, FAM179B / Fold change vs veh, FAM179B / RFU, BCL10 / Fold change vs veh, BCL10 / RFU, UHRF1BP1L / Fold change vs veh, UHRF1BP1L / RFU, BET1 / Fold change vs veh, BET1 / RFU, CNOT2 / Fold change vs veh, CNOT2 / RFU, ZNF268 / Fold change vs veh, ZNF268 / Fold change vs veh, ZNF507 / RFU, DGCR2 / Fold change vs veh, DGCR2 / RFU, WDSUB1 / Fold change vs veh, WDSUB1 / Fold change vs veh, HSP90B1 /// MIR3652 / RFU, ADSS / Fold change vs veh, ADSS / RFU, GK / Fold change vs veh, GK / RFU, ZNF148 / Fold change vs veh, ZNF148 / RFU, TAF9 / Fold change vs veh, TAF9 / RFU, SLC1A5 / Fold change vs veh, SLC1A5 / RFU, SLMO2 / Fold change vs veh, SLMO2 / RFU, ABCC4 / Fold change vs veh, ABCC4 / RFU, LOC101060439 /// RAP1B / Fold change vs veh, LOC101060439 /// RAP1B / RFU, RFX7 / Fold change vs veh, RFX7 / RFU, GTPBP10 / Fold change vs veh, GTPBP10 / RFU, CNEP1R1 / Fold change vs veh, CNEP1R1 / RFU, BIVM-ERCC5 /// ERCC5 / Fold change vs veh, BIVM-ERCC5 /// ERCC5 / RFU, ILF3 / Fold change vs veh, ILF3 / RFU 11762660_at / Fold change /veh 11762660_at / RFU VCAN (11757783_s_at) / Fold change /veh VCAN (11757783_s_at) / RFU DDX43 (11728927_at) / Fold change /veh DDX43 (11728927_at) / RFU KRT8 (11758188_x_at) / Fold change /veh KRT8 (11758188_x_at) / RFU NKD1 (11759106_at) / Fold change /veh NKD1 (11759106_at) / RFU SRD5A1 (11742802_a_at) / Fold change /veh SRD5A1 (11742802_a_at) / RFU TPSAB1 /// TPSB2 (11721975_s_at) / Fold change /veh TPSAB1 /// TPSB2 (11721975_s_at) / RFU GSTM3 (11746129_a_at) / Fold change /veh GSTM3 (11746129_a_at) / RFU IL23R (11737362_x_at) / Fold change /veh IL23R (11737362_x_at) / RFU TMEM51 (11727254_a_at) / Fold change /veh TMEM51 (11727254_a_at) / RFU PIWIL2 (11732686_x_at) / Fold change /veh PIWIL2 (11732686_x_at) / RFU ORM1 (11744905_x_at) / Fold change /veh ORM1 (11744905_x_at) / RFU CCDC152 (11743942_at) / Fold change /veh CCDC152 (11743942_at) / RFU ECM1 (11717891_a_at) / Fold change /veh ECM1 (11717891_a_at) / RFU IL23R (11748794_a_at) / Fold change /veh IL23R (11748794_a_at) / RFU TNFAIP8L3 (11732012_x_at) / Fold change /veh TNFAIP8L3 (11732012_x_at) / RFU MBOAT4 (11741988_at) / Fold change /veh MBOAT4 (11741988_at) / RFU 11764193_at / Fold change /veh 11764193_at / RFU TMEM53 (11763286_at) / Fold change /veh TMEM53 (11763286_at) / RFU MAGEB2 (11727129_at) / Fold change /veh MAGEB2 (11727129_at) / RFU TMEM200A (11744735_a_at) / Fold change /veh TMEM200A (11744735_a_at) / RFU CCDC152 (11751479_a_at) / Fold change /veh CCDC152 (11751479_a_at) / RFU FAM211A (11726209_a_at) / Fold change /veh FAM211A (11726209_a_at) / RFU RGS16 (11746705_a_at) / Fold change /veh RGS16 (11746705_a_at) / RFU VCAN (11755009_s_at) / Fold change /veh VCAN (11755009_s_at) / RFU RHOB (11743442_s_at) / Fold change /veh RHOB (11743442_s_at) / RFU RGS16 (11720943_a_at) / Fold change /veh RGS16 (11720943_a_at) / RFU RGS16 (11720944_at) / Fold change /veh RGS16 (11720944_at) / RFU, VPS4B / Fold change vs veh, VPS4B / RFU, CREB1 / Fold change vs veh, CREB1 / RFU, DNAJC13 / Fold change vs veh, DNAJC13 / RFU, GNAQ / Fold change vs veh, GNAQ / RFU, CDK5R1 / Fold change vs veh, CDK5R1 / RFU, ZRANB3 / Fold change vs veh, ZRANB3 / RFU, CUL4A / Fold change vs veh, CUL4A / RFU, CCNY / Fold change vs veh, CCNY / RFU, UFL1 / Fold change vs veh, UFL1 / RFU, COG3 / Fold change vs veh, COG3 / RFU, DIAPH2 / Fold change vs veh, DIAPH2 / RFU, SKA2 / Fold change vs veh, SKA2 / RFU, AFF3 / Fold change vs veh, AFF3 / RFU, LMF1 / Fold change vs veh, LMF1 / RFU, IPO11 / Fold change vs veh, IPO11 / RFU, DFFB / Fold change vs veh, DFFB / RFU, FOXP1 / Fold change vs veh, FOXP1 / RFU, CARD8 / Fold change vs veh, CARD8 / RFU, STRN3 / Fold change vs veh, STRN3 / RFU, ADK / Fold change vs veh, ADK / RFU, RASSF2 / Fold change vs veh, RASSF2 / RFU, WIPF1 / Fold change vs veh, WIPF1 / RFU, LARP1B / Fold change vs veh, LARP1B / RFU, RASA1 / Fold change vs veh, RASA1 / RFU, RB1 / Fold change vs veh, RB1 / RFU, PPFIA1 / Fold change vs veh, PPFIA1 / RFU, MAT2A / Fold change vs veh, MAT2A / RFU, CCT5 / Fold change vs veh, CCT5 / RFU, WDR92 / Fold change vs veh, WDR92 / RFU, CUX1 / Fold change vs veh, CUX1 / RFU, TTC7A / Fold change vs veh, TTC7A / RFU, TMEM135 / Fold change vs veh, TMEM135 / RFU, DEPTOR / Fold change vs veh, DEPTOR / RFU, CPM / Fold change vs veh, CPM / RFU, DNAJB6 / Fold change vs veh, DNAJB6 / RFU, CACNA2D3 / Fold change vs veh, CACNA2D3 / RFU, DTX4 / Fold change vs veh, DTX4 / RFU, TFCP2 / Fold change vs veh, TFCP2 / RFU, GMCL1 /// GMCL1P1 / Fold change vs veh, GMCL1 /// GMCL1P1 / RFU, AEBP2 / Fold change vs veh, AEBP2 / RFU, SNHG1 /// SNORD22 /// SNORD25 /// SNORD26 /// SNORD27 /// SNORD28 /// SNORD29 /// SNORD31 / Fold change vs veh, SNHG1 /// SNORD22 /// SNORD25 /// SNORD26 /// SNORD27 /// SNORD28 /// SNORD29 /// SNORD31 / Fold change (Aza/veh), C12orf56 (ProbeSet 11735607_a_at) / Fold change (ACY-1035/veh), C12orf56 (ProbeSet 11735607_a_at) / Fold change (Aza/veh), FGFR1OP (ProbeSet 11751329_s_at) / Fold change (ACY-1035/veh), FGFR1OP (ProbeSet 11751329_s_at) / Fold change (Aza/veh), VPS36 (ProbeSet 11739960_a_at) / Fold change (ACY-1035/veh), VPS36 (ProbeSet 11739960_a_at) / RFU SYPL1 (11715823_x_at) / Fold change /veh SYPL1 (11715823_x_at) / RFU IGFBP7 (11715501_s_at) / Fold change /veh IGFBP7 (11715501_s_at) / RFU REEP3 (11722064_at) / Fold change /veh REEP3 (11722064_at) / RFU IGLL1 (11728026_x_at) / Fold change /veh IGLL1 (11728026_x_at): dose or concentration left out as unconfirmed
Settings: ProbeSet 11716331_a_at; LIST D

Nc1ccc(-c2cccs2)cc1NC(=O)c1ccc2c(c1)cc(C1CC1)n2CCN1CCOCC1 [ACY-1035]
RFU, DNAJB6: 348.58 RFU
